The nature of assay [1]: Stimulation of DNA triplet repeat slippage synthesis using p33-labeled (ATT)3 and unlabeled (AAT)5 template assessed as number of base pairs at 50 uM.
A short description of assay [2]: Binding affinity to hairpin DNA by surface plasmon resonance based assay.
Assay [3] can be described thus: Stimulation of DNA triplet repeat slippage synthesis using p33-labeled (ATT)3 and unlabeled (AAT)5 template assessed as number of base pairs at 400 uM.
Assay [4] can be described thus: Stimulation of DNA triplet repeat slippage synthesis using p33-labeled (ATT)3 and unlabeled (AAT)5 template at 100 uM in presence of doxorubicin.
Assay [5] can be described thus: Binding affinity to double strand DNA by surface plasmon resonance based assay.
Assay [6] can be described thus: Binding affinity to ATT-bulge-DNA by surface plasmon resonance based assay.
The nature of assay [7]: Stimulation of DNA triplet repeat slippage synthesis using p33-labeled (ATT)3 and unlabeled (AAT)5 template assessed as number of base pairs at 200 uM.
The nature of assay [8]: Stimulation of DNA triplet repeat slippage synthesis using p33-labeled (ATT)3 and unlabeled (AAT)5 template assessed as number of base pairs at 100 uM.
The nature of assay [9]: Stimulation of DNA triplet repeat slippage synthesis using p33-labeled (ATT)3 and unlabeled (AAT)5 template assessed as number of base pairs.

Calls of active or inactive are those of the source. No cut-off for these calls is given here.

Consider `OC[C@H]1O[C@@H](OCCN2c3ccccc3Sc3ccccc32)[C@H](O)[C@@H](O)[C@@H]1O`, for which the Activity is 18 in assay [1], 71 in assay [3], 32 in assay [7] and 20 in assay [8]. In addition, the figures for the Kd in assay [2] and in [5] were 140 µM and 170 µM, respectively. For the same compound, the outcome in [4] was inactive. The compound also gave a Ki in [6] of 41.5 µM.

For the compound `N[C@H]1[C@H](O[C@H]2C[C@H]3C(=O)c4cc5ccccc5cc4[C@H]3[C@@]23C(=O)CCc2ccccc23)O[C@H](CO)[C@@H](O)[C@@H]1O`, the result in assay [9] was Active.

Take `c1ccc2c(c1)Nc1ccccc1S2`: the result in assay [9] and in [6] was inactive.

(Values after ChEMBL document CHEMBL1152156, “A bulge binding agent with novel wedge-shape topology for stimulation of DNA triplet repeat strand slippage synthesis” (Bioorg Med Chem Lett, 2008).)
